Assay [1] concerns RNA polymerase II Serine 5 phosphorylation in A549 cells overexpressing CDK7 mutant (C312S). In words: Imaging-based cellular RNA PolII Ser5 phosphorylation assay in A549 cells overexpressing CDK7-mutant (C312S). The assay is classed as cell-based, human. The note with it: for IC50: Homo sapiens, A549, A549 cells overexpressing CDK7 mutant (C312S), read-out: CDK7_ A549 mutant hCDK7(pIC50) (converted); for CDK7_ A549 mutant hCDK7(pIC50): A549 cells overexpressing CDK7 mutant (C312S). As for the experimental part:
Data were calculated and analyzed in Phaedra.
From this an IC50 value can be obtained.
In parallel this assay was performed in A549 cells overexpressing CDK7-mutant (C312S) to evaluate the effect of the covalent bond on potency and to screen for potential off-target effects. Mutation of Cysteine to Serine (C312S), a less nucleophilic amino acid, prevents CDK7 inhibitors from covalently binding to CDK7 and from inhibiting CDK7 activity in an irreversible manner. A stably transduced A549 cell pool was generated that overexpresses CDK7 mutant (C312S), but also expresses endogenous CDK7-WT. Covalent binders targeting the cysteine at position 312 will show a shift in potency in A549 cells overexpressing mutant C312S CDK7.

For assay [2], the system named is RNA polymerase II Serine 5 phosphorylation (CDK7) in A549 cells.
For assay [3], the target named is CDK7/cyclinH/MAT1 trimeric complex (Homo sapiens (Human), UniProt P50613). Put plainly: In vitro CDK7 assay, potency of irreversible covalent inhibitors (kinact/KI). Conditions: for Ki: CDK7 (20 nM enz.) (KI, μM); for CDK7 (20 nM enz.) (kinact, s^−1) / CDK7 (20 nM enz.) (kinact/ KI, M^−1*s^−1) / Ki: 20 nM enz.; for kinact: read-out: CDK7 (20 nM enz.) (kinact, s^−1), 20 nM enz.
Sequence of CDK7/cyclinH/MAT1 trimeric complex (P50613 whole entry): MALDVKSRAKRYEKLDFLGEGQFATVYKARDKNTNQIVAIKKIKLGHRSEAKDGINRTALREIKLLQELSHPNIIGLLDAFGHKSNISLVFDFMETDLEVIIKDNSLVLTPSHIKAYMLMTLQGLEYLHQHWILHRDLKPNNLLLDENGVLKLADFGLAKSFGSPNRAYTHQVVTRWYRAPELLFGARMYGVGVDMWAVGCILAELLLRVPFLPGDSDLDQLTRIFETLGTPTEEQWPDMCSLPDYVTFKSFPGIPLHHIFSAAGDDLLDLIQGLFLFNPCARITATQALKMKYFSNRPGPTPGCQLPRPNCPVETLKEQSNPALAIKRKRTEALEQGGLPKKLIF
Sequence of CDK7/cyclinH/MAT1 trimeric complex (P51946 whole entry partner): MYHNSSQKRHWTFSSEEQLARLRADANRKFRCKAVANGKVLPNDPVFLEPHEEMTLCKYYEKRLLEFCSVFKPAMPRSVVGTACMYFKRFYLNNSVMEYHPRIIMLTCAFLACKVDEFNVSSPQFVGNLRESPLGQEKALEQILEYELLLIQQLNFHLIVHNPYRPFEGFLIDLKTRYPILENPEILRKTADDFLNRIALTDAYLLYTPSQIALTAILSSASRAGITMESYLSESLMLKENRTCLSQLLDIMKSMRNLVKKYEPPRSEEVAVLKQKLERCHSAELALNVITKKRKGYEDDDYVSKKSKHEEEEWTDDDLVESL
Sequence of CDK7/cyclinH/MAT1 trimeric complex (P51948 whole entry partner): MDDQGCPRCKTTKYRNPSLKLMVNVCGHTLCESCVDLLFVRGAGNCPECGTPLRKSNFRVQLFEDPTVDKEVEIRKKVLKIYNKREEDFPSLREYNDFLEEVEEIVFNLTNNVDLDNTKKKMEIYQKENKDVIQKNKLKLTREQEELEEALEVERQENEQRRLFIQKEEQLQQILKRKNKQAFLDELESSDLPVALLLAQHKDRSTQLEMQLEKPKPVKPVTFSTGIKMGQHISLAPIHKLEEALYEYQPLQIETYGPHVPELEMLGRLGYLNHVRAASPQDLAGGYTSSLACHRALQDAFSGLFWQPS

Several values for one entry are separate records, joined by “and”; a condition that tells them apart may be missing. Identical values can stand only once. Like-named read-outs stand apart in the source and are kept apart here.

Turning to `CC#CC(=O)N1CC(N2C3CCC2CC(c2cc(C)c4c(c2)Nc2ncnc(N5CCS(=O)(=O)CC5)c2[C@@H](C)O4)C3)C1` (mixture of isomers) [compound 182], the IC50 in assay [1] was 6030 nM; in assay [2], around 72.4 nM.
For `CC#CC(=O)N1CC(N2C3CCC2CC(c2cc(C)c4c(c2)Nc2ncnc(N5CCS(=O)(=O)CC5)c2[C@@H](C)O4)C3)C1` (mixture of isomers) [compound 183], in assay [1], the “CDK7_ A549 mutant hCDK7(pIC50)” value was below 5. In assay [2], this compound had an IC50 of 347 nM.
For `CC#CC(=O)N1CC(N2CC(c3cc(C)c4c(c3)Nc3ncnc(N5CCS(=O)(=O)CC5)c3[C@@H](C)O4)C2)C(C)(C)C1` (mixture of isomers) [compound 184], the IC50 is above 10000 nM in assay [1] and 186 nM in assay [2].
In the same order, the values of `C=CC(=O)N1CC[C@@H](N2CC(c3cc4c(c(C5CC5)c3)O[C@@H](C)c3c(ncnc3N3CCS(=O)(=O)CC3)N4)C2)C1` (single isomer, unassigned) [compound 98] are above 10000 nM and 347 nM.
As to `C=CC(=O)N1CC[C@H](N2CCC(c3cc(C)c4c(c3)Nc3ncnc(N5CCS(=O)(=O)CC5)c3CO4)CC2)C1` (single isomer, unassigned) [compound 115], in assay [1], the “CDK7_ A549 mutant hCDK7(pIC50)” value is given as below 5 and the IC50 was above 10000 nM. In assay [3], the “CDK7 (20 nM enz.) (kinact, s^−1)” value came out at 5.98e-05 s⁻¹; the “CDK7 (20 nM enz.) (kinact/ KI, M^−1*s^−1)” value was found to be 1377.97 M⁻¹ s⁻¹; the Ki was 0.0595 µM and 0.0434 µM; the kinact came out at 7.64e-05 s⁻¹. Also, the kinact/KI in assay [3] (read-out: CDK7 (20 nM enz.) (kinact/ KI, M^−1*s^−1), 20 nM enz.) was 1280 M⁻¹ s⁻¹.
In the case of `C=CC(=O)N1CC[C@H](N2CC(c3cc(C)c4c(c3)Nc3ncnc(N5CCS(=O)(=O)CC5)c3[C@@H](C)O4)C2)C1` (single isomer, unassigned) [compound 117], in assay [1], the “CDK7_ A549 mutant hCDK7(pIC50)” value is given as below 5 and the IC50 is above 10000 nM. In addition, in assay [3], the “CDK7 (20 nM enz.) (kinact, s^−1)” value was 8.4e-05 s⁻¹ and 4.63e-05 s⁻¹; the “CDK7 (20 nM enz.) (kinact/ KI, M^−1*s^−1)” value was 1546.72 M⁻¹ s⁻¹ and 2895.79 M⁻¹ s⁻¹ and 2153.89 M⁻¹ s⁻¹; the Ki is 0.034 µM and 0.029 µM and 0.0215 µM; the kinact was determined as 5.26e-05 s⁻¹. Moreover, the kinact/KI in assay [3] (read-out: CDK7 (20 nM enz.) (kobs/[I], M^−1*s^−1), 20 nM enz.) came to 800 M⁻¹ s⁻¹.
As to `C=CC(=O)N1CC[C@@H](N2CC(c3cc(C)c4c(c3)Nc3ncnc(N5CCS(=O)(=O)CC5)c3[C@@H](C)O4)C2)C1` (single isomer, unassigned) [compound 119], in assay [1], the “CDK7_ A549 mutant hCDK7(pIC50)” value turned out to be 4.95 and the IC50 was above 10000 nM. For the same compound, in assay [3], the “CDK7 (20 nM enz.) (kinact, s^−1)” value is 6.1e-05 s⁻¹ and 4.27e-05 s⁻¹; the “CDK7 (20 nM enz.) (kinact/ KI, M^−1*s^−1)” value was 1923.49 M⁻¹ s⁻¹ and 1433.61 M⁻¹ s⁻¹ and 1881.64 M⁻¹ s⁻¹; the Ki is 0.0249 µM and 0.0426 µM and 0.0227 µM; the kinact was 4.79e-05 s⁻¹.
For the compound `CC#CC(=O)N1CC[C@H](N2CC(c3cc(C)c4c(c3)Nc3ncnc(N5CCS(=O)(=O)CC5)c3[C@H](C)O4)C2)C1` (single isomer, unassigned) [compound 129], in assay [1], the “CDK7_ A549 mutant hCDK7(pIC50)” value is reported as below 5 and the IC50 is above 10000 nM.
In the same order, the values of `CC#CC(=O)N1CC[C@@H](N2CC(c3cc(C)c4c(c3)Nc3ncnc(N5CCS(=O)(=O)CC5)c3[C@H](C)O4)C2)C1` (single isomer, unassigned) [compound 131] are below 5 and above 10000 nM.
Take `CC#CC(=O)N1CC(N2CCC(c3cc4c(c(C)n3)O[C@H](C)c3c(ncnc3N3CCS(=O)(=O)CC3)N4)CC2)C1` (single isomer, unassigned) [compound 139]: the IC50 in assay [1] is above 10000 nM. Besides, in assay [3], the “CDK7 (20 nM enz.) (kinact, s^−1)” value is 6.2e-05 s⁻¹; the Ki was 0.135 µM and 0.0466 µM; the kinact is 5.63e-05 s⁻¹.
With `CC#CC(=O)N1CC[C@H](N2CC(c3cc(C)c4c(c3)Nc3ncnc(N5CCS(=O)(=O)CC5)c3[C@@H](C)O4)C2)C1` [compound 128], in assay [1], the “CDK7_ A549 mutant hCDK7(pIC50)” value was below 5 and the IC50 was above 10000 nM.
For `CC#CC(=O)N1CC[C@@H](N2CC(c3cc(C)c4c(c3)Nc3ncnc(N5CCS(=O)(=O)CC5)c3[C@@H](C)O4)C2)C1` [compound 130], in assay [1], the IC50 was above 10000 nM.

By kinact is commonly meant the rate constant of inactivation at saturating inhibitor.
